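Growth conditions: 96-well plates. Treatment: test compound, 48 hours, 5 concentrations. Analysis: linear interpolation between bracketing concentrations; unreached endpoints set to highest concentration. TGI is the concentration that stops growth completely.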
Key:
Assay in all cases: NCI anticancer screen, dose series, 48 h
DU-145 prostate = tested on: DU-145 prostate
LOX IMVI melanoma = tested on: LOX IMVI melanoma
ACHN renal = tested on: ACHN renal
TK-10 renal = tested on: TK-10 renal
SF-295 CNS = tested on: SF-295 CNS
T-47D breast = tested on: T-47D breast
UACC-257 melanoma = tested on: UACC-257 melanoma
786-0 renal = tested on: 786-0 renal
OVCAR-3 ovarian = tested on: OVCAR-3 ovarian
HCC-2998 colon = tested on: HCC-2998 colon

Row | SMILES | TGI (DU-145 prostate) [µM] | TGI (LOX IMVI melanoma) [µM] | TGI (ACHN renal) [µM] | TGI (TK-10 renal) [µM] | TGI (SF-295 CNS) [µM] | TGI (T-47D breast) [µM] | TGI (UACC-257 melanoma) [µM] | TGI (786-0 renal) [µM] | TGI (OVCAR-3 ovarian) [µM] | TGI (HCC-2998 colon) [µM]
1 | O=C1COc2cc(N3CCN(c4cccc(C(F)(F)F)c4)CC3)ccc2N1 | > 100 | > 100 | > 100 | > 100 | > 100 | > 100 | > 100 | > 100 | > 100 | > 100
2 | COc1cccc(N=N/C(=N/NC(=O)c2ccc(C)cc2)c2ccc(N(CCC#N)CCC#N)cc2OC)c1 | > 100 | > 100 | > 100 | > 100 | > 100 | > 100 | > 100 | > 100 | > 100 | > 100
3 | Cc1c(C(=O)c2ccc(N)c3ccccc23)c2ccccc2n1CCN1CCOCC1 | > 95.2 | 59 | > 100 | > 82.2 | 48.5 | > 100 | 58.5 | 80.6 | 41.3 | 59.9
4 | CC1=NN(c2cccc(Cl)c2)C2(C1=Cc1ccc(O)cc1)C(Cl)C(=O)N2c1nc2ccccc2s1 (stereo not given) | 67.9 | 47.5 | 52.7 | > 100 | 57 | 97.8 | > 100 | 80.6 | > 100 | 35
5 | COc1cc(/C=C2\CC/C(=C\c3cc(OC)c(O)c(OC)c3)C2=O)cc(OC)c1O | 16.5 | 6.26 | 6.58 | > 100 | > 100 | 8.02 | > 100 | > 100 | > 21.8 | 3.38
6 | Cn1cnc(N)c(N=O)c1=O | > 10 | > 10 | > 10 | > 10 | > 10 | > 10 | > 10 | > 10 | > 10 | > 10
7 | CCOC(=O)c1ccc(Nc2nc3ccccc3nc2-c2cccs2)cc1 | > 100 | 74.1 | > 100 | 58.5 | > 100 | 56.2 | > 100 | > 100 | > 100 | 77.7
8 | CC(C)(C)OC(=O)N/C(C=O)=C\C1CCCCC1 | 95.9 | 29.9 | 86.4 | 32.9 | 99.3 | 84.5 | 48 | 42.6 | 73.1 | 37.3
9 | CCCCc1ccc(Nc2ncc3ncn(COCCO)c3n2)cc1 | > 100 | 39.7 | > 100 | > 100 | 80.1 | > 100 | 72.5 | > 100 | 90.9 | 40.7

From PubChem BioAssay (NCI)
